# Data published in ChEMBL document CHEMBL1135540, “Identification of a pharmacophore for thrombopoietic activity of small, non-peptidyl molecules. 2. Rational design of naphtho[1,2-d]imidazole thrombopoietin mimics” (J Med Chem, 2002).
# Columns and labels:
# [1] = Efficacy in activation of luciferase expression in BAF-3/TPO-Rluc cell line and the value is reported as %TPO; format: functional, Homo sapiens
# UT7 [2] = assay: Effective concentration for proliferation of UT7/TPO-R cell line.; format: functional, cell-based; details: Homo sapiens
# UT7 [3] = assay: Efficacy in proliferation of the UT7/TPO-R cell line and the value is reported as %TPO; format: functional, Homo sapiens
# [4] = (§1) Activation of luciferase expression in BAF-3/TPO-Rluc cell line.; format: functional, cell-based; details: Homo sapiens
# [5] = Efficacy in activation of luciferase expression in UT-7/TPO-R cell line and the value is reported as % salicylaldehyde thio-semicarbazone-thrombopoietin (TPO); format: functional, Homo sapiens
# [6] = Agonistic activity against proliferation of UT-7/TPO-R cell line; format: functional; details: Homo sapiens, UT7/TPO-R
# [7] = Activation of luciferase expression in the proliferation of UT7/TPO-R cell line.; format: functional; details: Homo sapiens
# [8] = as §1; format: cell-based; details: Homo sapiens
Structure (SMILES),EC50 [4] [nM],TPO [1] [%],TPO (UT7 [3]) [%],further results
O=S(=O)(O)c1cc2[nH]c(-c3c(O)ccc4ccccc34)nc2c2c(O)cccc12,35000,52,<10,
CC(C)(C)c1ccc(-c2cccc(-c3nc4c(ccc5cc(C(=O)O)cc(O)c54)[nH]3)c2)cc1,,,,TPO [5]: 60%; EC50 [6]: 300 nM
Cc1ccc(-n2[nH]c(C)c(/N=N/c3c(O)cc(S(=O)(=O)O)c4ccccc34)c2=O)cc1C,,,,EC50 [7]: 40 nM
Cc1ccc(-c2cccc(/C=N/N=C(\S)Nc3cccc(C(=O)O)c3)c2O)cc1C,,,,EC50 [7]: 30 nM
CC(C)(C)c1ccc(-c2cccc(-c3nc4c(ccc5cc(S(=O)(=O)O)cc(O)c54)[nH]3)c2)cc1,,100,,EC50 [8]: 80 nM

# The next lines start with results.
EC50 [4] [nM],Structure (SMILES),TPO [1] [%],TPO (UT7 [3]) [%],further results
1200,Cc1ccc(-c2cccc(-c3nc4c(ccc5cc(S(=O)(=O)O)cc(O)c54)[nH]3)c2O)cc1C,36,70,EC50 (UT7 [2]): 1000 nM
26000,O=S(=O)(O)c1cc(O)c2c(ccc3[nH]c(-c4c(O)ccc5ccccc45)nc32)c1,11,<10,
4800,O=S(=O)(O)c1cc2[nH]c(-c3ccc4ccccc4c3O)nc2c2c(O)cccc12,28,<10,
9700,O=S(=O)(O)c1cc(O)c2c(ccc3[nH]c(-c4ccc5ccccc5c4O)nc32)c1,27,<10,
